Measurements: the supplement of paper PMC10307832

Compound: CN(C)C(=N)NC(=N)N [Metformin] + NC(=O)Nc1cc(-c2cccc(F)c2)sc1C(=O)N[C@H]1CCCNC1 [AZD7762] (partner 0.2 µM)
Test: relative viability (nuclei count vs DMSO), 5 days (fraction); higher = more cells survive
Conditions: first compound 10 µM
Summary of the method: (§1)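 A single step with final 0.05% Triton X-100, 1% formaldehyde and 1 ug/ml Hoechst fixed the cells and stained nuclei 5 days after treatment. Lung cancer cell lines in 1536-well plates had been treated by pin tool the day after seeding with one drug alone or a fixed anchor-drug dose plus five library-drug doses (not always all listed) in √10 steps, and nuclei were counted on 4× images. Relative viability is the ratio of nuclei in treated wells to nuclei in vehicle wells, taken as the median of duplicate plates.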

| Cell Line | relative viability |
| --- | --- |
| LK-2 | 0.359 |
| LOU-NH91 | 0.743 |
| LU99A | 0.244 |
| LXF-289 | 1.05 |
| NCI-H23 | 0.351 |
| NCI-H322M | 0.569 |
| NCI-H358 | 0.619 |
| NCI-H596 | 1.18 |
| NCI-H647 | 0.414 |
| NCI-H650 | 1.03 |
| NCI-H727 | 0.655 |
| NCI-H838 | 0.972 |
| NCI-H1355 | 0.735 |
| NCI-H1395 | 0.415 |
| NCI-H1437 | 1.17 |
| NCI-H1651 | 0.467 |
| NCI-H1666 | 0.897 |
| NCI-H1734 | 0.61 |
| NCI-H1755 | 0.361 |
| NCI-H1793 | 0.535 |
| NCI-H1944 | 0.406 |
| NCI-H1975 | 0.772 |
| NCI-H1993 | 0.714 |

Same assay, conditions: first compound 31.62 µM

| Cell Line | relative viability |
| --- | --- |
| LCLC-97TM1 | 0.244 |
| LCLC-103H | 0.852 |
| LK-2 | 0.454 |
| LOU-NH91 | 0.668 |
| LU99A | 0.249 |
| LXF-289 | 1.02 |
| NCI-H23 | 0.178 |
| NCI-H322M | 0.641 |
| NCI-H358 | 0.449 |
| NCI-H441 | 0.7 |
| NCI-H596 | 1.13 |
| NCI-H647 | 0.467 |
| NCI-H650 | 1.22 |
| NCI-H727 | 0.624 |
| NCI-H838 | 0.947 |
| NCI-H1355 | 0.656 |
| NCI-H1395 | 0.389 |
| NCI-H1437 | 1.1 |
| NCI-H1651 | 0.519 |
| NCI-H1666 | 0.993 |
| NCI-H1734 | 0.542 |
| NCI-H1755 | 0.379 |
| NCI-H1793 | 0.47 |
| NCI-H1915 | 0.713 |
| NCI-H1944 | 0.586 |
| NCI-H1975 | 0.734 |
| NCI-H1993 | 0.656 |

Same assay, conditions: first compound 100 µM

| Cell Line | relative viability |
| --- | --- |
| LCLC-97TM1 | 0.205 |
| LCLC-103H | 0.748 |
| LK-2 | 0.512 |
| LOU-NH91 | 0.716 |
| LU99A | 0.252 |
| LXF-289 | 1.01 |
| NCI-H23 | 0.348 |
| NCI-H322M | 0.649 |
| NCI-H358 | 0.461 |
| NCI-H441 | 1.05 |
| NCI-H596 | 1.3 |
| NCI-H647 | 0.495 |
| NCI-H650 | 0.896 |
| NCI-H727 | 0.565 |
| NCI-H838 | 0.989 |
| NCI-H1355 | 0.694 |
| NCI-H1395 | 0.41 |
| NCI-H1437 | 1.07 |
| NCI-H1651 | 0.495 |
| NCI-H1666 | 0.98 |
| NCI-H1734 | 0.541 |
| NCI-H1755 | 0.408 |
| NCI-H1793 | 0.784 |
| NCI-H1915 | 0.686 |
| NCI-H1944 | 0.48 |
| NCI-H1975 | 0.681 |
| NCI-H1993 | 0.744 |

Same assay, conditions: first compound 316.23 µM

| Cell Line | relative viability |
| --- | --- |
| LCLC-97TM1 | 0.27 |
| LCLC-103H | 0.663 |
| LK-2 | 0.361 |
| LOU-NH91 | 0.681 |
| LU99A | 0.223 |
| LXF-289 | 1.05 |
| NCI-H23 | 0.293 |
| NCI-H322M | 0.464 |
| NCI-H358 | 0.519 |
| NCI-H441 | 0.982 |
| NCI-H596 | 1.08 |
| NCI-H647 | 0.418 |
| NCI-H650 | 0.835 |
| NCI-H838 | 0.99 |
| NCI-H1355 | 0.732 |
| NCI-H1395 | 0.428 |
| NCI-H1437 | 1.09 |
| NCI-H1651 | 0.473 |
| NCI-H1666 | 0.869 |
| NCI-H1734 | 0.579 |
| NCI-H1755 | 0.345 |
| NCI-H1793 | 0.396 |
| NCI-H1915 | 0.669 |
| NCI-H1944 | 0.626 |
| NCI-H1975 | 0.689 |
| NCI-H1993 | 0.716 |

Same assay, conditions: first compound 1000 µM

| Cell Line | relative viability |
| --- | --- |
| LCLC-97TM1 | 0.306 |
| LCLC-103H | 0.883 |
| LK-2 | 0.548 |
| LOU-NH91 | 0.718 |
| LU99A | 0.383 |
| LXF-289 | 1.07 |
| NCI-H23 | 0.421 |
| NCI-H322M | 0.566 |
| NCI-H358 | 0.532 |
| NCI-H441 | 1.06 |
| NCI-H596 | 1.23 |
| NCI-H647 | 0.513 |
| NCI-H650 | 1.18 |
| NCI-H727 | 0.525 |
| NCI-H838 | 0.94 |
| NCI-H1355 | 0.72 |
| NCI-H1395 | 0.41 |
| NCI-H1437 | 0.551 |
| NCI-H1651 | 0.587 |
| NCI-H1666 | 1.1 |
| NCI-H1734 | 0.53 |
| NCI-H1755 | 0.408 |
| NCI-H1793 | 0.505 |
| NCI-H1915 | 0.707 |
| NCI-H1944 | 0.527 |
| NCI-H1975 | 0.637 |
| NCI-H1993 | 0.9 |

Compound: N#CC1(c2ccc(NC(=O)c3cccnc3NCc3ccncc3)cc2)CCCC1 [Apatinib] + Cc1nc(NC(=O)N2CCC[C@H]2C(N)=O)sc1-c1ccnc(C(C)(C)C(F)(F)F)c1 [Alpelisib] (partner 2 µM)
Test: as above
Conditions: first compound 0.08 µM
Summary of the method: as §1

| Cell Line | relative viability |
| --- | --- |
| LCLC-97TM1 | 0.281 |
| LCLC-103H | 0.971 |
